Results taken from PubChem BioAssay AID2842 (Southern Research Institute, 2010).
Converted amounts (≈) assume the structure as drawn.

Each compound was assayed on M. tuberculosis H37Rv growth inhibition (assay: Mycobacterium tuberculosis H37Rv growth inhibition, putative kinase inhibitor library, confirmatory dose response (AID 2842);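 further: bacteria incubated one week before Alamar blue readout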).
`Cc1ccccc1C1C=C(c2cccs2)Nc2nc3ccccc3n21` (stereo not drawn) gave an IC90 of 13.8 µg/mL (≈ 40 µM). `CCc1ccc(Nc2ncnc3c2cnn3-c2ccc(C)cc2C)cc1` showed an IC90 of 6.47 µg/mL (≈ 18.8 µM). In the case of `CC(C)(C)c1ccc(C(=O)Nc2nnc(-c3cccnc3)o2)cc1`, the IC90 was 0.84 µg/mL (≈ 2.61 µM). With `COc1ccc(-c2nc(NC(=O)c3cccc(C)c3)sc2C)cc1` the IC90 was 5.78 µg/mL (≈ 17.1 µM). With `Cc1ccc(-c2nnc(NC(=O)C3CC3)o2)c(C)c1` the IC90 was 1.47 µg/mL (≈ 5.71 µM). `Cc1ccc(N2C(=O)C(Cl)=C(Nc3cc(Cl)ccc3O)C2=O)cc1` showed an IC90 of 25.4 µg/mL (≈ 69.8 µM). For `COc1cccc2sc(N(CCCn3ccnc3)C(=O)c3ccco3)nc12`, the IC90 was 12.4 µg/mL (≈ 32.5 µM). `COc1ccc(Cl)c2sc(N(CCCn3ccnc3)C(=O)c3cccs3)nc12` was tested, and the IC90 was 1.72 µg/mL (≈ 3.97 µM). `O=C(Nc1nnc(-c2ccc(Cl)cc2)o1)c1cccc(C(F)(F)F)c1` showed an IC90 of 2.99 µg/mL (≈ 8.13 µM). For `CCc1cccc2sc(N(CCCn3ccnc3)C(=O)c3cccs3)nc12`, the IC90 was 0.34 µg/mL (≈ 0.857 µM). With `COc1cccc2sc(Nc3nc4c(s3)CC(C)CC4)nc12` (stereo not drawn) the IC90 was 5.79 µg/mL (≈ 17.5 µM). `O=C(Nc1nc(-c2ccc3c(c2)CCCC3)cs1)c1ccc2c(c1)OCCO2` gave an IC90 of 14.5 µg/mL (≈ 36.9 µM). Compound `O=C(Cc1ccccc1)N(CCCn1ccnc1)c1nc2c(F)cccc2s1` has an IC90 of 7.4 µg/mL (≈ 18.8 µM). In the case of `CCOC(=O)c1c(NC(=O)Cc2cccc3ccccc23)sc2c1CC(C)(C)NC2(C)C`, the IC90 was 2.08 µg/mL (≈ 4.62 µM). `C=CCOC(=O)COc1ccc2cc(-c3ccccc3)c(=O)oc2c1` gave an IC90 of 1.22 µg/mL (≈ 3.63 µM). `O=C1CN(C(=O)c2cccc(F)c2)C(c2ccc(F)cc2)c2cc(Br)ccc2N1` (stereo not drawn) showed an IC90 of 32.1 µg/mL (≈ 70.2 µM). Compound `Cc1ccc(C(=O)Nc2nnc(-c3ccncc3)o2)cc1C` has an IC90 of 26.8 µg/mL (≈ 91 µM). Work on `COc1ccccc1C(=O)Nc1nnc(-c2cc(C)ccc2C)o1` yielded an IC90 of 1.92 µg/mL (≈ 5.94 µM). In the case of `Cc1cc(C)c(-c2csc(NC(=O)c3ccc4c(c3)OCCO4)n2)c(C)c1`, the IC90 was 7.63 µg/mL (≈ 20.1 µM). In the case of `CCS(=O)(=O)c1cccc(C(=O)Nc2nc3ccc(C(C)C)cc3s2)c1`, the IC90 was 11.3 µg/mL (≈ 29.1 µM). In the case of `CCOC(=O)CNC(=O)CSc1ncnc2c1nnn2Cc1ccccc1F`, the IC90 was 3.38 µg/mL (≈ 8.36 µM). With `Cc1ccc(-c2csc(Nc3nc4cc5c(cc4s3)OCO5)n2)o1` the IC90 was 26.6 µg/mL (≈ 74.5 µM). For `CCOc1ccc(C(=O)Nc2nnc(-c3ccccn3)o2)cc1`, the IC90 was 1.03 µg/mL (≈ 3.32 µM). In the case of `COC(=O)CSCC(=O)Nc1nnc(-c2cccc(C)c2)s1`, the IC90 was 23.9 µg/mL (≈ 70.8 µM). In the case of `CC(C)c1cc(-c2nc(-c3ccccc3)no2)n[nH]1`, the IC90 was 12.7 µg/mL (≈ 49.9 µM). Work on `COc1cccc(C(=O)Nc2nnc(-c3ccc(C)cc3C)o2)c1` yielded an IC90 of 20.8 µg/mL (≈ 64.2 µM). `Cc1ccc(CC(=O)N(CCCn2ccnc2)c2nc3ccccc3s2)c(C)c1` was tested, and the IC90 was 4.82 µg/mL (≈ 11.9 µM). Compound `Cc1ccc(C2C=C(c3ccc(Cl)cc3)Nc3ncnn32)cc1` (stereo not drawn) has an IC90 of 6.94 µg/mL (≈ 21.5 µM). With `CCOC(=O)c1sc(Nc2nc3ccc(OC)cc3s2)cc1C` the IC90 was 83.8 µg/mL (≈ 240 µM). `CCc1ccc(-c2nnc3c4cc5c(cc4n(Cc4ccc(C)cc4)cc2-3)OCCO5)cc1` was tested, and the IC90 was 15.3 µg/mL (≈ 35 µM). With `COc1ccc(-c2nnc3c4ccccc4n(Cc4cccc(C)c4)cc2-3)cc1` the IC90 was 13.4 µg/mL (≈ 35.3 µM). `O=C1CN(C(=O)c2cccc3ccccc23)C(c2ccccc2)c2cc(Br)ccc2N1` (stereo not drawn) was tested, and the IC90 was 8.15 µg/mL (≈ 17.3 µM). `O=C(Nc1nnc(-c2ccc3c(c2)CCCC3)o1)c1cccc(Cl)c1` showed an IC90 of 8.65 µg/mL (≈ 24.4 µM). For `O=C(Nc1nnc(-c2ccco2)o1)c1cccc(Oc2ccccc2)c1`, the IC90 was 3.31 µg/mL (≈ 9.53 µM). `O=C(Nc1nnc(-c2ccc(F)cc2)o1)c1ccc(Cl)cc1` was tested, and the IC90 was 18.3 µg/mL (≈ 57.5 µM). `Cc1ccc(C2C(C#N)=C(SCC(=O)Nc3cccc(Cl)c3)NC3=C2C(=O)CCC3)o1` (stereo not drawn) showed an IC90 of 12.1 µg/mL (≈ 26.6 µM). `O=C(CSc1nc(-c2cccc(F)c2)[nH]c1-c1ccccc1)Nc1ccc2c(c1)OCO2` was tested, and the IC90 was 5.1 µg/mL (≈ 11.4 µM). Compound `O=C(OCn1nnc2ccccc2c1=O)c1ccco1` has an IC90 of 4.76 µg/mL (≈ 17.5 µM). With `CCc1cccc2sc(N(CCCn3ccnc3)C(=O)/C=C/c3cccs3)nc12` the IC90 was 0.83 µg/mL (≈ 1.96 µM). `CC1CCc2c(sc(Nc3nc4c(F)cccc4s3)c2C(N)=O)C1` (stereo not drawn) gave an IC90 of 8.58 µg/mL (≈ 23.7 µM). `Cc1ccc(-c2nnc(NC(=O)c3ccc(S(=O)(=O)N(C)C)cc3)o2)c(C)c1` gave an IC90 of 41.1 µg/mL (≈ 103 µM). For `CCOc1ccc(-c2nnc3c4cc5c(cc4n(Cc4cccc(OC)c4)cc2-3)OCCO5)cc1`, the IC90 was 3.52 µg/mL (≈ 7.53 µM). Compound `O=C(Nc1nnc(-c2ccc(Br)cc2)o1)C1=COCCO1` has an IC90 of 24.9 µg/mL (≈ 70.8 µM). Compound `CC1CCCN(c2nc3c(c(=O)[nH]c(=O)n3C)n2CCCSc2nc3ccccc3s2)C1` (stereo not drawn) has an IC90 of 16.6 µg/mL (≈ 35.3 µM). `O=C(NNc1nc2ccc(Cl)cc2s1)c1nc2ccccc2s1` was tested, and the IC90 was 3.15 µg/mL (≈ 8.73 µM). Work on `COc1cc(-c2nnc(NC(=O)C(C)(C)C)o2)cc(OC)c1OC` yielded an IC90 of 14.5 µg/mL (≈ 43.1 µM). With `O=C1CN(C(=O)c2cc(Cl)ccc2Cl)C(c2ccccc2)c2cc(Cl)ccc2N1` (stereo not drawn) the IC90 was 6.59 µg/mL (≈ 14.8 µM). For `Cc1ccccc1Nc1nc(-c2cccnc2)nc2ccccc12`, the IC90 was 7.35 µg/mL (≈ 23.5 µM). Compound `COc1ccc2nc(N(CCCn3ccnc3)C(=O)c3cccc(OC)c3OC)sc2c1` has an IC90 of 11.3 µg/mL (≈ 24.9 µM). `COc1cccc(-c2nnc(NC(=O)c3ccc(Cl)cc3)o2)c1` gave an IC90 of 33.8 µg/mL (≈ 102 µM). For `Cc1ccc(Nc2nc(N3CCN(Cc4ccccc4)CC3)nc3nccnc23)cc1Cl`, the IC90 was 2.67 µg/mL (≈ 5.99 µM). Work on `Cc1ccc(C)c(-c2nnc(NC(=O)C3CC3)o2)c1` yielded an IC90 of 1.46 µg/mL (≈ 5.67 µM). `CCCCCOc1ccc(C(=O)Nc2nnc(-c3ccccn3)o2)cc1` gave an IC90 of 2.15 µg/mL (≈ 6.1 µM). `COc1ccc(OC)c(NC(=O)c2cc3cc(Cl)ccc3oc2=O)c1` was tested, and the IC90 was 0.77 µg/mL (≈ 2.14 µM). Work on `Cc1ccccc1C(=O)Nc1nnc(-c2ccc(F)cc2)o1` yielded an IC90 of less than 0.2 µg/mL. For `CC(=O)c1ccc(C(=O)Nc2nnc(-c3ccc(Cl)cc3)o2)cc1`, the IC90 was 1.8 µg/mL (≈ 5.27 µM). Work on `COc1ccc(C(=O)/C=C2\C(=O)Nc3ccccc32)cc1` yielded an IC90 of 38.6 µg/mL (≈ 138 µM). Compound `Cc1ccc(C)c(-c2nnc(NC(=O)c3ccc(OC(C)C)cc3)o2)c1` has an IC90 of 33.4 µg/mL (≈ 95 µM).
